Measurements reported in ChEMBL document CHEMBL1201862, “PubChem BioAssay data set” (2004).
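Tested at 5 concentrations; 48 h exposure; 96-well plates; endpoints linearly interpolated, else capped at highest concentration. GI50 marks 50% less growth.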 Calls of active or inactive are those of the source. Cut-off read from the data, not from the text of the source: active = GI50 up to about 1.1 µM and inactive = higher.

Experiments:
Experiment in all cases: NCI anticancer screen, dose series, 48 h
U-251 = test system: U-251
HCT-116 = test system: HCT-116
A549 = test system: A549
LOX IMVI = test system: LOX IMVI
Malme-3M = test system: Malme-3M
SF-295 = test system: SF-295
MCF7 = test system: MCF7
OVCAR-4 = test system: OVCAR-4
KM12 = test system: KM12
SK-MEL-2 = test system: SK-MEL-2
T47D = test system: T47D
SN12C = test system: SN12C
HT-29 = test system: HT-29
PC-3 = test system: PC-3
UACC-257 = test system: UACC-257
CCRF-CEM = test system: CCRF-CEM
MDA-MB-435 = test system: MDA-MB-435
SNB-19 = test system: SNB-19
MDA-N = test system: MDA-N
HOP-92 = test system: HOP-92

| SMILES | GI50 (U-251) | GI50 (HCT-116) | GI50 (A549) | GI50 (LOX IMVI) | GI50 (Malme-3M) | GI50 (SF-295) | GI50 (MCF7) | GI50 (OVCAR-4) | GI50 (KM12) | GI50 (SK-MEL-2) | GI50 (T47D) | GI50 (SN12C) | GI50 (HT-29) | GI50 (PC-3) | GI50 (UACC-257) | GI50 (CCRF-CEM) | GI50 (MDA-MB-435) | GI50 (SNB-19) | GI50 (MDA-N) | GI50 (HOP-92) |
| --- | --- | --- | --- | --- | --- | --- | --- | --- | --- | --- | --- | --- | --- | --- | --- | --- | --- | --- | --- | --- |
| O=C(C(Cl)Cl)N(O)c1ccccc1OCc1ccccc1 | 38.5 µM (inactive) | 63.8 µM (inactive) | 33.8 µM (inactive) | 43.9 µM (inactive) | 81.8 µM (inactive) | 57.7 µM (inactive) | 56.5 µM (inactive) | 26.6 µM (inactive) | 28.2 µM (inactive) | 80 µM (inactive) | 19.1 µM (inactive) | 49.2 µM (inactive) | 17.2 µM (inactive) | 27.8 µM (inactive) | 13.7 µM (inactive) | 1.79 µM (inactive) | 43.2 µM (inactive) | 57.7 µM (inactive) | – | – |
| CCCNC1=Nc2ccccc2NC(C)C1 (configuration not stated) | > 100 µM (inactive) | > 100 µM (inactive) | > 100 µM (inactive) | – | 79.6 µM (inactive) | > 100 µM (inactive) | – | > 100 µM (inactive) | > 100 µM (inactive) | > 100 µM (inactive) | – | > 100 µM (inactive) | > 100 µM (inactive) | > 100 µM (inactive) | > 100 µM (inactive) | > 100 µM (inactive) | > 100 µM (inactive) | > 100 µM (inactive) | > 100 µM (inactive) | – |
| O=c1cccc(Cl)[nH]1 | > 100 µM (inactive) | > 100 µM (inactive) | > 100 µM (inactive) | > 100 µM (inactive) | > 100 µM (inactive) | > 100 µM (inactive) | > 100 µM (inactive) | > 100 µM (inactive) | > 100 µM (inactive) | > 100 µM (inactive) | > 100 µM (inactive) | > 100 µM (inactive) | > 100 µM (inactive) | > 100 µM (inactive) | > 100 µM (inactive) | > 100 µM (inactive) | > 100 µM (inactive) | > 100 µM (inactive) | – | > 100 µM (inactive) |
| COc1ccc(NC(=O)C(=O)NNC(=O)c2sc(NNC(C)=O)nc2C)c([N+](=O)[O-])c1 | > 100 µM (inactive) | > 100 µM (inactive) | > 100 µM (inactive) | 40.6 µM (inactive) | > 100 µM (inactive) | > 100 µM (inactive) | – | 51.5 µM (inactive) | > 100 µM (inactive) | > 100 µM (inactive) | – | > 100 µM (inactive) | > 100 µM (inactive) | – | 81.7 µM (inactive) | 24.2 µM (inactive) | – | > 100 µM (inactive) | – | > 100 µM (inactive) |
| CCNC(=O)COc1ccc(Cl)c(C)c1 | > 100 µM (inactive) | > 100 µM (inactive) | > 100 µM (inactive) | > 100 µM (inactive) | > 100 µM (inactive) | > 100 µM (inactive) | – | > 100 µM (inactive) | > 100 µM (inactive) | > 100 µM (inactive) | – | > 100 µM (inactive) | > 100 µM (inactive) | – | > 100 µM (inactive) | > 100 µM (inactive) | – | > 100 µM (inactive) | – | > 100 µM (inactive) |
| CC#CCCCC1(C)CCCNC1=S (configuration not stated) | > 10 µM (inactive) | – | > 10 µM (inactive) | > 10 µM (inactive) | > 10 µM (inactive) | > 10 µM (inactive) | > 10 µM (inactive) | > 10 µM (inactive) | > 10 µM (inactive) | > 10 µM (inactive) | > 10 µM (inactive) | > 10 µM (inactive) | > 10 µM (inactive) | > 10 µM (inactive) | > 10 µM (inactive) | > 10 µM (inactive) | > 10 µM (inactive) | > 10 µM (inactive) | – | > 10 µM (inactive) |
| OC(c1ccccc1)C(F)(F)c1nc2ccccc2o1 (configuration not stated) | > 100 µM (inactive) | > 100 µM (inactive) | – | > 100 µM (inactive) | – | > 100 µM (inactive) | > 100 µM (inactive) | > 100 µM (inactive) | > 100 µM (inactive) | > 100 µM (inactive) | 55.3 µM (inactive) | – | > 100 µM (inactive) | > 100 µM (inactive) | > 100 µM (inactive) | 61.2 µM (inactive) | 82 µM (inactive) | > 100 µM (inactive) | – | > 100 µM (inactive) |
| c1ccc2sc(C3(N4CCCCC4)CCCC3)cc2c1 | – | 5.94 µM (inactive) | 5.43 µM (inactive) | 17.9 µM (inactive) | 13.8 µM (inactive) | 11 µM (inactive) | 8.02 µM (inactive) | 9.02 µM (inactive) | 7.01 µM (inactive) | – | – | 13.5 µM (inactive) | 3.24 µM (inactive) | – | 14.6 µM (inactive) | 3.5 µM (inactive) | 14.9 µM (inactive) | 13.8 µM (inactive) | 17.4 µM (inactive) | 11.2 µM (inactive) |
| Cn1ncc2ccc3[nH]c4ccccc4c(=O)c3c21 | 15.7 µM (inactive) | 24.9 µM (inactive) | 20.2 µM (inactive) | 18.7 µM (inactive) | 30.1 µM (inactive) | 34.8 µM (inactive) | – | 23.9 µM (inactive) | 38.3 µM (inactive) | 33.1 µM (inactive) | – | 28.2 µM (inactive) | 35 µM (inactive) | – | 31 µM (inactive) | 38.3 µM (inactive) | – | 38.3 µM (inactive) | – | 37.8 µM (inactive) |
| O=C1/C(=C/C=C/c2ccccc2)CCC1CNc1ccccc1 (configuration not stated) | > 59.3 µM (inactive) | 17.9 µM (inactive) | > 66.2 µM (inactive) | 18.6 µM (inactive) | 58.6 µM (inactive) | > 100 µM (inactive) | 6.49 µM (inactive) | 99.3 µM (inactive) | 14.9 µM (inactive) | – | 26.2 µM (inactive) | 23.2 µM (inactive) | 24.7 µM (inactive) | 36 µM (inactive) | 42.5 µM (inactive) | 3.48 µM (inactive) | 40.8 µM (inactive) | > 55 µM (inactive) | – | 47.8 µM (inactive) |
| COc1cc(C(C)c2cc3c(cc2OCCOCCOc2cc4c(cc2C(C)c2cc(OC)c(OC)c(OC)c2)OCO4)OCO3)cc(OC)c1OC (configuration not stated) | > 10 µM (inactive) | > 10 µM (inactive) | > 10 µM (inactive) | > 10 µM (inactive) | > 10 µM (inactive) | 46.7 µM (inactive) | – | > 10 µM (inactive) | > 10 µM (inactive) | > 10 µM (inactive) | – | > 10 µM (inactive) | > 10 µM (inactive) | – | > 10 µM (inactive) | > 10 µM (inactive) | – | > 10 µM (inactive) | – | 16.4 µM (inactive) |
| Nc1ccc(SC23CC4CC(CC(C4)C2)C3)cc1 | 78.3 µM (inactive) | > 100 µM (inactive) | > 100 µM (inactive) | > 100 µM (inactive) | > 100 µM (inactive) | 92.7 µM (inactive) | 61.8 µM (inactive) | – | > 100 µM (inactive) | > 100 µM (inactive) | > 100 µM (inactive) | > 100 µM (inactive) | > 100 µM (inactive) | > 100 µM (inactive) | > 100 µM (inactive) | > 100 µM (inactive) | > 100 µM (inactive) | > 100 µM (inactive) | – | – |
| CCCCC1Nc2ccccc2-c2ccnc(Cl)c21 (configuration not stated) | 21.4 µM (inactive) | 15.7 µM (inactive) | 28.1 µM (inactive) | 16.6 µM (inactive) | 20.8 µM (inactive) | 21.5 µM (inactive) | 35 µM (inactive) | 20.1 µM (inactive) | 20.7 µM (inactive) | 16.8 µM (inactive) | – | 20.8 µM (inactive) | 10.8 µM (inactive) | 25.8 µM (inactive) | 20 µM (inactive) | 19.1 µM (inactive) | 16.1 µM (inactive) | 24.1 µM (inactive) | 15.6 µM (inactive) | 14.2 µM (inactive) |
| CSC1=Nc2ccccc2-c2nc(-c3ccccc3)cc(-c3ccccc3)c2C1 | 7.03 µM (inactive) | 5.16 µM (inactive) | 16 µM (inactive) | 23.2 µM (inactive) | – | 13.6 µM (inactive) | – | 8.93 µM (inactive) | 24.9 µM (inactive) | – | 10.4 µM (inactive) | 28.2 µM (inactive) | 30.5 µM (inactive) | 21.4 µM (inactive) | 28.1 µM (inactive) | > 100 µM (inactive) | 22.2 µM (inactive) | 6.4 µM (inactive) | 26.5 µM (inactive) | – |
| CCN1CCCC(C#N)(c2ccccc2)CC1 (configuration not stated) | > 100 µM (inactive) | > 100 µM (inactive) | > 100 µM (inactive) | – | > 100 µM (inactive) | > 100 µM (inactive) | – | > 100 µM (inactive) | > 100 µM (inactive) | – | > 100 µM (inactive) | – | > 100 µM (inactive) | > 100 µM (inactive) | > 100 µM (inactive) | > 10 µM (inactive) | – | > 100 µM (inactive) | > 100 µM (inactive) | > 100 µM (inactive) |
| CN(C)CCCNC(=S)S | > 100 µM (inactive) | > 100 µM (inactive) | > 100 µM (inactive) | > 100 µM (inactive) | > 100 µM (inactive) | > 100 µM (inactive) | > 100 µM (inactive) | > 100 µM (inactive) | > 100 µM (inactive) | > 100 µM (inactive) | – | > 100 µM (inactive) | > 100 µM (inactive) | > 100 µM (inactive) | > 100 µM (inactive) | > 100 µM (inactive) | > 100 µM (inactive) | > 100 µM (inactive) | > 100 µM (inactive) | > 100 µM (inactive) |
| C[C@@H]1C[C@@H]([C@H](O)CC2CC(=O)NC(=O)C2)C(=O)[C@@H](C)C1 [CYCLOHEXIMIDE] | 0.0603 µM (active) | 0.0738 µM (active) | 0.0366 µM (active) | 0.0374 µM (active) | 0.0889 µM (active) | 0.142 µM (active) | – | 0.0366 µM (active) | 0.0202 µM (active) | 0.106 µM (active) | – | 0.0199 µM (active) | 0.0718 µM (active) | – | 0.0912 µM (active) | < 0.0186 µM (active) | – | 0.0984 µM (active) | – | 0.0366 µM (active) |
